From patent publication US5164380A, “Process for preparing piroxicam/cyclodextrin complexes, the products obtained and their pharmaceutical compositions” (Chiesi Farmaceutici S.p.A., priority 1990, dated 1992)
In brackets after ≈: the same amount, converted by molar mass.

Key:
[1] = background, cited from earlier work
[2] = Solubilization kinetics / solubility test (oversaturation, paddle method, continuous flow cell)
Excerpt: This test, effected within a few minutes from the beginning of the solubilization process, provides data to be considered as one of the most important parameters for the biopharmaceutical evaluation of the products.

[3] = background; cited from earlier work
[4] = Water-wettability by water contact angle analysis; type: physicochemical
Excerpt: Data are given relevant to water-wettability determined by water contact angle analysis, true density determined by Helium pycnometry, and surface area determined by mercury porosimetry (Table 2).

Question: For CN1C(C(=O)Nc2ccccn2)=C(O)c2ccccc2S1(=O)=O [piroxicam], which “analgesic and anti-inflammatory activity (in words)” value [1] is on record?
Answer: Its value is “considerable analgesic and anti-inflammatory activity”.

Question: What about the “absorption (in words)” value ([1]; oral and rectal routes) of the same compound?
Answer: The value was “slow and gradual absorption via both the oral and rectal routes”.

Question: And the “C max (oversaturation value)” value ([2]; acetate buffer pH 5.0, 500 ml, 125 rpm, 37 °C, product at least 10 times saturation quantity)?
Answer: The value was 30000 ng/mL.

Question: And the solubility thermodynamic ([2]; acetate buffer, pH 5, aqueous buffer)?
Answer: Its solubility thermodynamic is 30 µg/mL (≈ 90.5 µM).

Question: And the “solubility (in words)” value [3]?
Answer: The value was “poorly soluble in water and in biological fluids at physiological pH values”.

Question: What about the water contact angle [4] of the same compound?
Answer: The water contact angle was 76 °.
